Earlier results, collected in patent EP2335686A1, “An aqueous intravenous nanosuspension with reduced adverse effects” (LEK Pharmaceuticals d.d., priority 2009, dated 2011).
In brackets after ≈: the same amount, converted by molar mass.

For CC(C)c1cccc(C(C)C)c1O [propofol], the “aqueous solubility at room temperature” value is given as 0.0164 µg/mL (≈ 0.092 µM).
